# PubChem BioAssay AID1745844 (Carcinogenic Potency Database (CPDB), 2022)
# Calls of active or inactive are those of the source. The rule behind the calls is not given here.
# System: rodent lifetime carcinogenesis bioassay, tumor incidence TD50
# Experiment: chronic cancer bioassays in animals – CPDB, compiled studies (AID 1745844)
smiles,measurement,setting,value
Cc1ccc(C)c(OCCCC(C)(C)C(=O)O)c1,TD50,"mouse, strain Charles River CD1, females, in feed, site: any site (literature study), lesion: several types, types named in the paper, dosed 78 weeks, study length 78 weeks",1690 mg/kg/day (inactive)
same,TD50,"mouse, strain Charles River CD1, females, in feed, site: liver, lesion: hepatocellular adenoma, dosed 78 weeks, study length 78 weeks",6600 mg/kg/day (inactive)
same,TD50,"mouse, strain Charles River CD1, females, in feed, site: lung, lesion: several types, types named in the paper, dosed 78 weeks, study length 78 weeks",11800 mg/kg/day (inactive)
same,carcinogen call,"mouse, strain Charles River CD1, males, in feed, site: any site (literature study), lesion: several types, types named in the paper, dosed 78 weeks, study length 78 weeks",negative (inactive)
same,TD50,"mouse, strain Charles River CD1, males, in feed, site: liver, lesion: several types, types named in the paper, dosed 78 weeks, study length 78 weeks",1660 mg/kg/day (inactive)
same,carcinogen call,"mouse, strain Charles River CD1, males, in feed, site: lung, lesion: several types, types named in the paper, dosed 78 weeks, study length 78 weeks",negative (inactive)
same,carcinogen call,"rat, strain Charles River CD (Sprague-Dawley), females, in feed, site: any site (literature study), lesion: several types, types named in the paper, dosed 104 weeks, study length 104 weeks",negative (inactive)
same,TD50,"rat, strain Charles River CD (Sprague-Dawley), females, in feed, site: liver, lesion: hepatocellular carcinoma, dosed 104 weeks, study length 104 weeks",504 mg/kg/day (inactive)
same,TD50,"rat, strain Charles River CD (Sprague-Dawley), males, in feed, site: adrenal gland, lesion: pheochromocytoma, dosed 104 weeks, study length 104 weeks",85.9 mg/kg/day
same,TD50,"rat, strain Charles River CD (Sprague-Dawley), males, in feed, site: any site (literature study), lesion: benign tumor, dosed 104 weeks, study length 104 weeks",196 mg/kg/day
same,TD50,"rat, strain Charles River CD (Sprague-Dawley), males, in feed, site: any site (literature study), lesion: several types, types named in the paper, dosed 104 weeks, study length 104 weeks",202 mg/kg/day
same,TD50,"rat, strain Charles River CD (Sprague-Dawley), males, in feed, site: liver, lesion: hepatocellular carcinoma, dosed 104 weeks, study length 104 weeks",247 mg/kg/day
same,TD50,"rat, strain Charles River CD (Sprague-Dawley), males, in feed, site: pancreas, lesion: several types, types named in the paper, dosed 104 weeks, study length 104 weeks",161 mg/kg/day
same,TD50,"rat, strain Charles River CD (Sprague-Dawley), males, in feed, site: testis, lesion: interstitial-cell tumor, dosed 104 weeks, study length 104 weeks",516 mg/kg/day
C#CC1(O)CC[C@H]2[C@@H]3CCC4=CCCC[C@@H]4[C@H]3CC[C@@]21C (stereo not given in full),TD50,"dog, strain Beagle, females, in feed, site: mammary gland, lesion: carcinoma, dosed 364 weeks, study length 364 weeks",0.58 mg/kg/day
FC(F)OC(Cl)C(F)(F)F (stereo not given),carcinogen call,"mouse, strain Swiss Webster, females, inhaled, site: liver, lesion: basophil adenoma, dosed 78 weeks, study length 81 weeks",negative (inactive)
same,TD50,"mouse, strain Swiss Webster, females, inhaled, site: lung, lesion: alveolar-cell adenoma, dosed 78 weeks, study length 81 weeks",30000 mg/kg/day (inactive)
same,carcinogen call,"mouse, strain Swiss Webster, males, inhaled, site: liver, lesion: basophil adenoma, dosed 78 weeks, study length 81 weeks",negative (inactive)
same,carcinogen call,"mouse, strain Swiss Webster, males, inhaled, site: lung, lesion: alveolar-cell adenoma, dosed 78 weeks, study length 81 weeks",negative (inactive)
P,TD50,"rat, strain Fischer 344, females, inhaled, site: liver, lesion: hepatocellular adenoma, dosed 104 weeks, study length 104 weeks",53.1 mg/kg/day (inactive)
same,carcinogen call,"rat, strain Fischer 344, females, inhaled, site: liver, lesion: one or several types, types not named, dosed 52 weeks, study length 52 weeks",negative (inactive)
same,TD50,"rat, strain Fischer 344, males, inhaled, site: liver, lesion: hepatocellular adenoma, dosed 104 weeks, study length 104 weeks",5.69 mg/kg/day (inactive)
same,carcinogen call,"rat, strain Fischer 344, males, inhaled, site: liver, lesion: hepatocellular carcinoma, dosed 104 weeks, study length 104 weeks",negative (inactive)
same,carcinogen call,"rat, strain Fischer 344, males, inhaled, site: liver, lesion: one or several types, types not named, dosed 52 weeks, study length 52 weeks",negative (inactive)
same,carcinogen call,"rat, strain Sprague-Dawley, females, in feed, site: any site (literature study), lesion: one or several types, types not named, dosed 52 weeks, study length 52 weeks",negative (inactive)
same,carcinogen call,"rat, strain Sprague-Dawley, females, in feed, site: any site (literature study), lesion: several types, types named in the paper, dosed 104 weeks, study length 104 weeks",negative (inactive)
same,carcinogen call,"rat, strain Sprague-Dawley, males, in feed, site: any site (literature study), lesion: one or several types, types not named, dosed 52 weeks, study length 52 weeks",negative (inactive)
same,carcinogen call,"rat, strain Sprague-Dawley, males, in feed, site: any site (literature study), lesion: several types, types named in the paper, dosed 104 weeks, study length 104 weeks",negative (inactive)
c1ccc2[nH]ccc2c1,carcinogen call,"mouse, strain Swiss albino, females, in feed, site: urinary bladder, lesion: carcinoma, dosed 70 weeks, study length 70 weeks",negative (inactive)
Cn1cc(C(=O)[C@@H]2CCc3nc[nH]c3C2)c2ccccc21,carcinogen call,"mouse, strain B6C3F1, females, by gavage, site: liver, lesion: hepatocellular adenoma, dosed 104 weeks, study length 104 weeks",negative (inactive)
same,TD50,"mouse, strain B6C3F1, females, by gavage, site: liver, lesion: hepatocellular carcinoma, dosed 104 weeks, study length 104 weeks",1040 mg/kg/day (inactive)
same,carcinogen call,"mouse, strain B6C3F1, females, by gavage, site: lung, lesion: adenoma, dosed 104 weeks, study length 104 weeks",negative (inactive)
same,carcinogen call,"mouse, strain B6C3F1, females, by gavage, site: lung, lesion: carcinoma, dosed 104 weeks, study length 104 weeks",negative (inactive)
same,carcinogen call,"mouse, strain B6C3F1, males, by gavage, site: liver, lesion: hepatocellular adenoma, dosed 104 weeks, study length 104 weeks",negative (inactive)
same,carcinogen call,"mouse, strain B6C3F1, males, by gavage, site: liver, lesion: hepatocellular carcinoma, dosed 104 weeks, study length 104 weeks",negative (inactive)
same,carcinogen call,"mouse, strain B6C3F1, males, by gavage, site: lung, lesion: adenoma, dosed 104 weeks, study length 104 weeks",negative (inactive)
same,carcinogen call,"mouse, strain B6C3F1, males, by gavage, site: lung, lesion: carcinoma, dosed 104 weeks, study length 104 weeks",negative (inactive)
same,carcinogen call,"rat, strain Fischer 344, females, by gavage, site: liver, lesion: hepatocellular adenoma, dosed 104 weeks, study length 104 weeks",negative (inactive)
same,carcinogen call,"rat, strain Fischer 344, males, by gavage, site: liver, lesion: hepatocellular adenoma, dosed 104 weeks, study length 104 weeks",negative (inactive)
O=C(O)c1cc(Oc2ccc(C(F)(F)F)cc2Cl)ccc1[N+](=O)[O-],TD50,"mouse, strain B6C3F1, females, in feed, site: liver, lesion: hepatocellular adenoma, dosed 78 weeks, study length 78 weeks",434 mg/kg/day
same,TD50,"mouse, strain B6C3F1, females, in feed, site: liver, lesion: hepatocellular carcinoma, dosed 78 weeks, study length 78 weeks",1380 mg/kg/day
same,TD50,"mouse, strain B6C3F1, females, in feed, site: liver, lesion: several types, types named in the paper, dosed 78 weeks, study length 78 weeks",328 mg/kg/day
same,TD50,"mouse, strain B6C3F1, females, in feed, site: stomach, lesion: papilloma, dosed 78 weeks, study length 78 weeks",1050 mg/kg/day
same,TD50,"mouse, strain B6C3F1, males, in feed, site: liver, lesion: hepatocellular adenoma, dosed 78 weeks, study length 78 weeks",331 mg/kg/day
same,TD50,"mouse, strain B6C3F1, males, in feed, site: liver, lesion: hepatocellular carcinoma, dosed 78 weeks, study length 78 weeks",395 mg/kg/day
same,TD50,"mouse, strain B6C3F1, males, in feed, site: liver, lesion: several types, types named in the paper, dosed 78 weeks, study length 78 weeks",149 mg/kg/day
same,TD50,"mouse, strain B6C3F1, males, in feed, site: stomach, lesion: papilloma, dosed 78 weeks, study length 78 weeks",2050 mg/kg/day
same,TD50,"mouse, strain Charles River CD1, females, in feed, site: liver, lesion: hepatocellular adenoma, dosed 104 weeks, study length 104 weeks",160 mg/kg/day
same,TD50,"mouse, strain Charles River CD1, females, in feed, site: liver, lesion: hepatocellular carcinoma, dosed 104 weeks, study length 104 weeks",715 mg/kg/day
same,TD50,"mouse, strain Charles River CD1, females, in feed, site: liver, lesion: several types, types named in the paper, dosed 104 weeks, study length 104 weeks",126 mg/kg/day
same,TD50,"mouse, strain Charles River CD1, males, in feed, site: liver, lesion: hepatocellular adenoma, dosed 104 weeks, study length 104 weeks",187 mg/kg/day
same,TD50,"mouse, strain Charles River CD1, males, in feed, site: liver, lesion: hepatocellular carcinoma, dosed 104 weeks, study length 104 weeks",307 mg/kg/day
same,TD50,"mouse, strain Charles River CD1, males, in feed, site: liver, lesion: several types, types named in the paper, dosed 104 weeks, study length 104 weeks",93.8 mg/kg/day
C[C@](N)(Cc1ccc(O)c(O)c1)C(=O)O,carcinogen call,"mouse, strain B6C3F1, females, in feed, site: any site (literature study), lesion: several types, types named in the paper, dosed 103 weeks, study length 104 weeks",negative (inactive)
same,TD50,"mouse, strain B6C3F1, females, in feed, site: lung, lesion: alveolar/bronchiolar adenoma + alveolar/bronchiolar carcinoma, dosed 103 weeks, study length 104 weeks",25000 mg/kg/day
same,TD50,"mouse, strain B6C3F1, males, in feed, site: kidney, lesion: tubular-cell adenoma + tubular-cell adenocarcinoma, dosed 103 weeks, study length 104 weeks",20100 mg/kg/day
same,TD50,"rat, strain Fischer 344, females, in feed, site: any site (literature study), lesion: several types, types named in the paper, dosed 103 weeks, study length 104 weeks",592 mg/kg/day (inactive)
same,carcinogen call,"rat, strain Fischer 344, males, in feed, site: any site (literature study), lesion: several types, types named in the paper, dosed 103 weeks, study length 104 weeks",negative (inactive)
CCCCCCCCCCCCCCCC(=O)CC(=O)CCCCCCCCCCCCCCC,carcinogen call,"rat, strain F344/DuCrj, females, in feed, site: colon, lesion: one or several types, types not named, dosed 54 weeks, study length 54 weeks",negative (inactive)
same,carcinogen call,"rat, strain F344/DuCrj, females, in feed, site: mammary gland, lesion: one or several types, types not named, dosed 54 weeks, study length 54 weeks",negative (inactive)
